Experimental data: patent publication US9192670B2, “Regulation of amyloid beta molecular composition for the treatment of alzheimer's disease” (Ramot at Tel-Aviv University Ltd., priority 2011, dated 2015)
Entries after “also recorded” stand apart in the source; their conditions may differ. Where two headings read alike, the source gives them in different places.

Tests used:
hippocampal slices = assay: Extracellular Aβ40/Aβ42 by sandwich ELISA in acute hippocampal slices stimulated by single spikes or spike bursts; format: cell-based, rat
CA3-CA1 connections [1] = assay: fEPSP/EPSC recordings in CA3-CA1 connections of hippocampal slices; format: cell-based, rat
rat hippocampal cultures = format: cell-based
CFP-PS1-YFP = format: cell-based, rat
[2] = in vivo; cited from earlier work
APP = assay: Western blot of APP processing in APP/PS1 hippocampal slices; format: cell-based, mouse; conditions: APP/PS1 slices before and after pre-treatment with baclofen
Text: Immunoblot Analysis. At the end of each stimulation, hippocampal slices were homogenized and prepared for the detection of full-length APP, soluble APP and APP-C terminal fragment (APP-CTF) by western blotting as described previously^18. Full length APP and soluble APP was probed using anti-APP 22C11 monoclonal antibody (Millipore, Temecula, Calif., 1:2000). In APP/PS1 slices, APP-bCTF was detected using 82E1 monoclonal antibody (IBL, Japan, 1:200). Both 22C11 and 82E1 probing were followed by goat anti-mouse HRP conjugated secondary antibody (Jackson ImmunoResearch, West Grove, Pa., 1:5000). APP-aCTF was detected using rabbit anti-APP-CTF antibody (Millipore, Temecula, Calif., 1:10,000) followed by goat anti-rabbit HRP conjugated secondary antibody (Jackson ImmunoResearch, West Grove, Pa., 1:5000). Following detection, blots were stripped with Restore™ Western Blot Stripping Buffer (Pierce, Thermo Scientific, Rockford, Ill.) and then re-probed with mouse anti-actin (SIGMA, Israel, 1:10,000) and HRP-conjugated goat anti-mouse (1:5000) antibodies as a loading control protein. All proteins were visualized by SuperSignal® West Pico Chemiluminescent (Pierce; Thermo Scientific, Rockford, Ill.). Densitometry was performed using the ImageJ Analysis software, and each band was normalized to its actin signal.

human cortical slices [3] = assay: Extracellular Aβ40/Aβ42 by ELISA in human cortical slices, single spikes or spike bursts; format: cell-based; conditions: RS-baclofen 20 μM
Experimental: (§1) Human slices were subjected to 1 hour stimulations by single spikes or spike bursts as described for experiments in rodents herein above (each burst contains 5 APs, inter-spike-interval 10 ms, inter-burst interval 5 s) in ACSF in the presence of 50 μM AP-5 for blocking postsynaptic excitatory NMDA receptors. Following stimulation, [Aβ40]o and [Aβ42]o in ACSF were measured by sandwich ELISA. Extracellularly recorded field EPSPs (fEPSPs) were used to assess short-term synaptic plasticity.

CA3-CA1 connections [4] = assay: fEPSP recordings in CA3-CA1 connections of APP/PS1 hippocampal slices; format: cell-based, mouse
[5] = system: APP/PS1 hippocampal slices; assay: Extracellular Aβ40/Aβ42 by ELISA in APP/PS1 hippocampal slices, single spikes or spike bursts; format: cell-based, mouse
CA3-CA1 connections [6] = assay: fEPSP recordings in CA3-CA1 connections of human hippocampal slices; format: cell-based; conditions: RS-baclofen 20 μM
Experimental: as §1

human hippocampal slices = assay: Extracellular Aβ40/Aβ42 by ELISA in human hippocampal slices, single spikes or spike bursts; format: cell-based; conditions: RS-baclofen 20 μM
Experimental: as §1

human cortical slices [7] = assay: fEPSP recordings in human cortical slices; format: cell-based; conditions: RS-baclofen 20 μM
Experimental: as §1

[8] = 20 mM gabazine, 1 h at 37° C., blocking GABAA receptors
[9] = baclofen 1 μM, 3 h, APP/PS1 slices

## C[C@@H](NC(=O)c1cc(C(=O)N[C@@H](Cc2ccccc2)[C@H](O)CNC2CC2)cc(N(C)S(C)(=O)=O)c1)c1ccccc1 [BACE1 inhibitor IV]
Hippocampal slices
  [Aβ40]o in pretreated slices: negligible
  [Aβ42]o in pretreated slices: negligible

## CC(=O)OCOC(=O)CN(CCOCCOCCN(CC(=O)OCOC(C)=O)CC(=O)OCOC(C)=O)CC(=O)OCOC(C)=O [EGTA-AM]
CA3-CA1 connections [1]
  EPSCs evoked by single spikes reduced by: 20%
  burst/single ratio of EPSC charge transfer per spike (QEPSC): lower
  synaptic facilitation of EPSCs reduced by: 70%
Hippocampal slices
  Aβ40/42 pattern dependency: abolished
  Aβ40/42 ratio associated with burst patterns: decreased
  Aβ40 burst/single ratio: reduced
  [Aβ40]o during spike bursts: reduced
  [Aβ42]o during either single spikes or bursts: did not affect
  burst/single ratio of Aβ42: did not affect

## COc1ccc(-c2ccc(=N)n(CCCC(=O)O)n2)cc1 [gabazine]
Rat hippocampal cultures; [8]
  [Aβ40]o increased by: 93.5%
  [Aβ42]o increased by: 103%

## NC1=N[C@H](O)[C@H]2[C@H]3O[C@]4(O)O[C@@H]([C@@H](O)[C@@]2(N1)[C@@H]4O)[C@]3(O)CO [tetrodotoxin]
Rat hippocampal cultures
  [Aβ40]o reduced by: 34%
  [Aβ42]o reduced by: 31%
CFP-PS1-YFP
  CFP-PS1-YFP FRET efficiency: did not change
  FYFP/FCFP (FR): not affected
[2]
  elimination rate of total Aβ: lack of TTX effect

## C[C@H](NC[C@H](O)CP(=O)(O)CC1CCCCC1)c1ccc(Cl)c(Cl)c1 [CGP54626]
CA3-CA1 connections [1]
  burst/single ratio of fEPSP charge transfer per spike (QfEPSP): reduced
  short-term synaptic facilitation during the burst: reduced
  slope of linear fit of input-output relationship (stimulation amplitude vs slope of fEPSP): 1.13±0.06
Hippocampal slices
  [Aβ40]o during single spikes: did not affect
  [Aβ40]o during spike bursts: reduced
  [Aβ42]o during either single spikes or bursts: did not affect
  difference between the Aβ40/42 ratio associated with single and burst patterns: abolished
  pattern dependency of Aβ40: reduced
  pattern dependency of the Aβ40/42 ratio: reduced

## OC[C@H]1O[C@@H](n2cnc3c(NC4CCCC4)nc(Cl)nc32)[C@H](O)[C@@H]1O [CCPA, 2-Chloro-N-cyclopentyladenosine]
CA3-CA1 connections [1]
  basal synaptic transmission: rescued
  burst/single ratio of fEPSP charge transfer per spike (QfEPSP): rescued
  short-term facilitation (relative slopes of fEPSPs within the burst): rescued
  slope of linear fit of input-output relationship (stimulation amplitude vs slope of fEPSP): 0.49±0.03
Hippocampal slices
  Aβ40/42 during periods of high-frequency burst firing: boosting
  Aβ40 pattern dependency (burst/single ratio): rescued
  Aβ42 burst/single ratio: unaltered
  [Aβ40]o during single spikes: decreased
  [Aβ40]o during spike bursts: increasing
  pattern dependency of the Aβ40/42 ratio: restored

## NCC(CC(=O)O)c1ccc(Cl)cc1 (stereo not drawn) [baclofen]
APP
  burst/single ratio of FL-APP: no significant differences
  burst/single ratio of βCTF: no significant differences
Human cortical slices [3]
  Aβ42 pattern dependency: no effect
  burst pattern sensitivity of Aβ40: increased
  pattern dependency of the Aβ40/42: induced
CA3-CA1 connections [4]
  burst/single ratio of fEPSP charge transfer per spike (QfEPSP): reversed
  slope of linear fit of input-output relationship (stimulation amplitude vs slope of fEPSP): 0.95±0.06
CA3-CA1 connections [4]; [9]
  reduction in short-term synaptic facilitation by burst in APP/PS1 mice: reversed
CA3-CA1 connections [1]
  basal synaptic transmission: rescued
  burst/single ratio of fEPSP charge transfer per spike (QfEPSP): rescued
  short-term facilitation (relative slopes of fEPSPs within the burst): rescued
  slope of linear fit of input-output relationship (stimulation amplitude vs slope of fEPSP): 0.77±0.02
CA3-CA1 connections [1]; 3 h pre-incubation, CGP54626 10 μM in ACSF, baclofen 1 μM in ↑Ca/Mg-slices, recordings in normal ACSF
  short-term synaptic facilitation during the burst: rescued
CA3-CA1 connections [1]; pretreatment of hippocampal slices with baclofen for 3 h before electrical stimulation
  total synaptic strength: did not alter
Hippocampal slices
  Aβ40/42 during periods of high-frequency burst firing: boosting
  Aβ40 pattern dependency (burst/single ratio): rescued
  Aβ42 burst/single ratio: unaltered
  [Aβ40]o during spike bursts: increasing; also recorded: increased
  [Aβ42]o during either single spikes or bursts: did not affect
  difference between the Aβ40/42 ratio associated with single and burst patterns: restored
  pattern dependency of the Aβ40/42 ratio: restored
Hippocampal slices; 3 h pre-incubation, CGP54626 10 μM, baclofen 1 μM in ↑Ca/Mg-slices
  pattern dependency of Aβ40: rescued
[5]
  Aβ40/42 ratio associated with burst patterns: increased
  [Aβ40]o during single spikes: did not affect
  [Aβ42]o during either single spikes or bursts: did not affect
  burst/single ratio of Aβ42: did not affect
  pattern dependency of the Aβ40/42 ratio: rescued
  reduction in the Aβ40 burst/single ratio: rescued
[5]; [9]
  [Aβ40]o during bursts: increased
CFP-PS1-YFP
  FYFP/FCFP (FR) on changing stimulation pattern from single spikes to spike bursts: not affected
CA3-CA1 connections [6]
  short-term synaptic facilitation during the burst: increased
Human hippocampal slices
  Aβ40/42 ratio during burst pattern of stimulation: increased
  Aβ42 pattern dependency: without affecting
  [Aβ42]o during either single- or burst stimulation pattern: uniformly inhibited
  burst pattern sensitivity of Aβ40: increased
  pattern dependency of the Aβ40/42: induced
Human hippocampal slices; stronger during single spikes
  [Aβ40]o: inhibited
Human cortical slices [7]
  short-term synaptic depression: reduced

## ω-conotoxin GVIA [ω-CgTx]
CA3-CA1 connections [1]
  basal synaptic transmission: rescued
  burst/single ratio of fEPSP charge transfer per spike (QfEPSP): rescued
  short-term facilitation (relative slopes of fEPSPs within the burst): rescued
  slope of linear fit of input-output relationship (stimulation amplitude vs slope of fEPSP): 0.82±0.03
Hippocampal slices
  Aβ40/42 during periods of high-frequency burst firing: boosting
  Aβ40 pattern dependency (burst/single ratio): rescued
  Aβ42 burst/single ratio: unaltered
  [Aβ40]o during single spikes: decreased
  [Aβ40]o during spike bursts: increasing
  pattern dependency of the Aβ40/42 ratio: restored

## [Cd] [cadmium]
CA3-CA1 connections [1]
  synaptic transmission: completely blocked
Hippocampal slices
  Aβ40/42 pattern dependency: abolished
  Aβ40/42 ratio: decreased
  Aβ40 burst/single ratio: reduced
  [Aβ40]o reduced by, during single spikes: 67%
  [Aβ40]o reduced by, during spike bursts: 77%
  [Aβ42]o at either stimulation pattern: did not alter
  burst/single ratio of Aβ42: did not affect
